The text below walks through data of patent US8563546B2, “Heterocyclic nitrogenous or oxygenous compounds with insecticidal activity formed from dialdehydes and their preparation and uses thereof” (East China University of Science and Technology, priority 2008, dated 2013).

Like-named read-outs stand apart in the source and are kept apart here.

What all share (type): in vivo
The test system of one data set is Nilaparvata lugens. As to the kind of experiment: Activity test for planthopper, spraying. Conditions: for mortality at 500 ppm: Nilaparvata lugens, read-out: Planthopper Mortality (100%) 500 ppm. Here is the method: (2) Activity Test for Planthopper (Nilaparvata lugens)
Planthopper, which belongs to Homoptera and has a piercing-sucking mouthpart, is a common insect for agricultural plant. Nilaparvata lugens was tested by the way of spraying.
Test method: the test compound was exactly formulated into a solution of acetone to final concentration of 500, 250, 100, 50, 25, 12.5, 6.25, 3.13, 1.57 and 0.79 ppm. The acetone aqueous solution was used as control. Each process was repeated for 3 tumblers (3 times). 2 mL of solution was sprayed uniformly to each cup by a mini manual sprayer. 10 Nilaparvata lugens were introduced to every sink 6 hours before spraying. Three series of experiments were conducted. The number of killed Nilaparvata lugens was counted after 24 hours to calculate the mortality using above mentioned formula.

Data set [1] concerns Pseudaletia Separate Walker. As to the kind of experiment: Activity test for armyworm, feeding immersed maize leaves. The conditions noted are these: for mortality at 500 ppm: read-out: Armyworm Mortality (100%) 500 ppm. Here is the method: (3) Activity Test for Armyworm (Pseudaletia Separate Walker)
Armyworm was tested by the way of feeding immersed leaves. The test compound was exactly formulated into a solution of acetone to concentration 500, 250, 100, 50, 25, 12.5, 6.25, 3.13 and 1.57 ppm. The acetone aqueous solution was used as control. Fresh maize leaves were immersed in the solution for 3 seconds and dried at room temperature and used to feed the tested insects. Each process was repeated for 3 times while 10 Armyworms were tested in each experiment. The number of killed Armyworms was counted after 24 hours to calculate the mortality using above mentioned formula.

The subject of the next data set is Plutella Xylostella. As to the kind of experiment: Activity test for diamondback moth, feeding immersed cabbage leaves. Conditions: for mortality at 500 ppm: Plutella xylostella, read-out: Diamondback moth Mortality (100%) 500 ppm. The method, then: (4) Activity Test for Diamondback Moth (Plutella Xylostella)
Diamondback moth was tested by the way of feeding immersed leaves. Fresh cabbage leaves were immersed in above mentioned solution for 3 seconds and dried at room temperature and used to feed to the tested insects. Each process was repeated for 3 tumblers (3 times) while 10 Diamondback moths were tested in each experiment, while water was used as control. The number of killed Diamondback moth was counted after 24 hours to calculate the mortality using above mentioned formula.

A further data set relates to Aphis craccivoral. As to the kind of experiment: Activity test for cowpea aphids, immersing. The conditions noted are these: for mortality at 500 ppm: Aphis, read-out: Cowpea Aphids Mortality (100%) 500 ppm. Here is the method:
(1) Activity Test for Cowpea Aphids (Aphis Craccivoral)
Aphis, which belongs to Homoptera and has a piercing-sucking mouthpart, is a common insect for agricultural plant. Aphis craccivoral was tested by the way of immersing.
Test method: exactly weighed various samples were independently added to N,N-dimethylformamide to form a 10 g/L stock solution. The mixture was diluted with 0.2 mL/L aqueous Triton X-100 solution to a concentration of 500 ppm After stably sucking on bean sprout, the adult aphis without wings together with bean sprout was dipped into 500 ppm dilution, taken out after 5 seconds, and the excess dilution was sucked out with bibulous paper and the adult aphis without wings was incubated in clean vessel at a constant temperature of 23° C. Each concentration was repeated for 3 times and the control group contained 0.2 mL/L aqueous Triton X-100 solution. The number of killed aphis was counted after 24 hours to calculate the mortality by the following formula: mortality(%)=(control alive aphis−treated alive aphis)/control alive aphis×100%.

Where [2] appears, read: 500 ppm, spraying, counted after 24 hours.
Setting [3] is: 500 ppm, immersed maize leaves, counted after 24 hours.
Where [4] appears, read: 500 ppm, immersed cabbage leaves, counted after 24 hours.
Setting [5] is: 500 ppm, dipped 5 seconds, counted after 24 hours, 23° C.

Take `O=[N+]([O-])C1=C2N(Cc3ccc(Cl)nc3)CCN2C2CCCC1O2` (stereo not shown) [Compound 77, 1-((6-chloropyridin-3-yl)methyl)-10-nitro-1,2,3,5,6,7,8,9-octahydro-5,9-epoxyimidazo[1,2-a]azocine]: the mortality at 500 ppm (in the data set with Nilaparvata lugens (setting [2]); in data set [1] (setting [3]); in the data set on Plutella Xylostella (setting [4]); with Aphis craccivoral (setting [5])) was 100% throughout.

With `CCN(Cc1ccc(Cl)nc1)C1=C([N+](=O)[O-])C2CCC(O2)N1C` (stereo not shown) [Compound 46, N-((6-chloropyridin-3-yl)methyl)-N-ethyl-2-methyl-4-nitro-8-oxa-2-aza-bicyclo[3.2.1]oct-3-en-3-amine], the mortality at 500 ppm (in the data set with Nilaparvata lugens (setting [2]); in data set [1] (setting [3]); in the data set with Plutella Xylostella (setting [4]); in the data set on Aphis craccivoral (setting [5])) was 100% each time.

With `O=[N+]([O-])C1=C2N(Cc3ccc(Cl)nc3)CCCN2C2CCC1O2` (stereo not shown) [Compound 61, 1-((6-chloropyridin-3-yl)methyl)-10-nitro-1,2,3,4,6,7,8,9-octahydro-6,9-epoxypyrimido[1,2-a]azepine], the mortality at 500 ppm was 75% in the data set with Nilaparvata lugens (setting [2]), 76% in data set [1] (setting [3]), 35% in the data set with Plutella Xylostella (setting [4]) and 65% in the data set on Aphis craccivoral (setting [5]).

`O=[N+]([O-])C1=C2N(Cc3ccc(Cl)nc3)CCN2C2CCC1O2` (stereo not shown) [Compound 52, 1-((6-chloropyridin-3-yl)methyl)-9-nitro-2,3,5,6,7,8-hexahydro-1H-5,8-epoxyimidazo[1,2-a]azepine]: the mortality at 500 ppm (in the data set on Nilaparvata lugens (setting [2]); in data set [1] (setting [3]); with Plutella Xylostella (setting [4]); in the data set with Aphis craccivoral (setting [5])) was 100% throughout.

With `N#CC1=C2N(Cc3ccc(Cl)nc3)CCN2C2CCC1O2` (stereo not shown) [Compound 64, 1-((6-chloropyridin-3-yl)methyl)-2,3,5,6,7,8-hexahydro-1H-5,8-epoxyimidazo[1,2-a]azepine-9-carbonitrile], the mortality at 500 ppm was found to be 56% in the data set on Nilaparvata lugens (setting [2]), 100% in data set [1] (setting [3]), 100% in the data set on Plutella Xylostella (setting [4]) and 96% in the data set on Aphis craccivoral (setting [5]).

As to “1-((6-chloropyridin-3-yl)methyl)-5-(1-((6-chloropyridin-3-yl) methyl)-1,4,5,6-tetrahydropyrimidin-2-yl)-1,5-dinitropenta-1,4-dienyl)-1,4,5,6-tetrahydropyrimidine [Compound 43]”, the “Planthopper Mortality (100%) 500 ppm” value with Nilaparvata lugens (setting [2]) was found to be 87%. In data set [1] (setting [3]), the “Armyworm Mortality (100%) 500 ppm” value amounted to 100%. Further, the “Diamondback moth Mortality (100%) 500 ppm” value in the data set with Plutella Xylostella (setting [4]) was found to be 96%. For the same compound, in the data set on Aphis craccivoral (setting [5]), the “Cowpea Aphids Mortality (100%) 500 ppm” value was found to be 78%.

Take `O=[N+]([O-])/C(=C1/NCCN1Cc1ccc(Cl)nc1)C(O)/C=C(\C1=NCCN1Cc1ccc(Cl)nc1)[N+](=O)[O-]` (stereo not shown) [Compound 13, 4-(1-((6-chloropyridin-3-yl)methyl)-4,5-dihydro-1H-imidazol-2-yl)-1-(1-((6-chloropyridin-3-yl)methyl)imidazolidin-2-ylidene)-1,4-dinitrobut-3-en-2-ol]: the mortality at 500 ppm with Nilaparvata lugens (24 h) came out at 85%; in data set [1] (24 h), 100%; in the data set with Plutella Xylostella (24 h), 100%; with Aphis craccivoral (24 h), 78%.

Turning to `O=[N+]([O-])/C(=C/C/C=C(\C1=NCCN1Cc1ccc(Cl)nc1)[N+](=O)[O-])C1=NCCN1Cc1ccc(Cl)nc1` [Compound 39], the mortality at 500 ppm (in the data set with Nilaparvata lugens (24 h); in data set [1] (24 h); in the data set on Plutella Xylostella (24 h); in the data set on Aphis craccivoral (24 h)) was 100% throughout.

Turning to `CCN(Cc1ccc(Cl)nc1)C(=N\C)/C(=C\C/C=C(\C(=N\C)N(CC)Cc1ccc(Cl)nc1)[N+](=O)[O-])[N+](=O)[O-]` [Compound 37, N^1,N^7-bis((6-chloropyridin-3-yl)methyl)-N^1,N^7-diethyl-N^1′, N^7′-dimethyl-2,6-dinitrohepta-2,5-dienediamidine], the mortality at 500 ppm (in the data set on Nilaparvata lugens (24 h); in data set [1] (24 h); in the data set on Plutella Xylostella (24 h); in the data set with Aphis craccivoral (24 h)) was 100% throughout.

With `COC(/C=C(\C1=NCCN1Cc1ccc(Cl)nc1)[N+](=O)[O-])/C(=C1\NCCN1Cc1ccc(Cl)nc1)[N+](=O)[O-]` (stereo not shown) [Compound 14], the mortality at 500 ppm (in the data set with Nilaparvata lugens (24 h); in data set [1] (24 h); in the data set on Plutella Xylostella (24 h); in the data set with Aphis craccivoral (24 h)) was 100% in each case.

Consider `O=[N+]([O-])C1=C2N(Cc3cnc(Cl)s3)CCN2C2CCC1O2` (stereo not shown) [Compound 53, 1-((2-chlorothiazol-5-yl)methyl)-9-nitro-2,3,5,6,7,8-hexahydro-1H-5,8-epoxyimidazo[1,2-a]azepine], for which the mortality at 500 ppm (in the data set with Nilaparvata lugens (setting [2]); in data set [1] (setting [3]); in the data set on Plutella Xylostella (setting [4]); with Aphis craccivoral (setting [5])) was 100% throughout.

Take `O=[N+]([O-])/C(=C/C/C=C(\C1=NCCN1Cc1cnc(Cl)s1)[N+](=O)[O-])C1=NCCN1Cc1cnc(Cl)s1` [Compound 41]: the mortality at 500 ppm (in the data set with Nilaparvata lugens (24 h); in data set [1] (24 h); in the data set with Plutella Xylostella (24 h); in the data set with Aphis craccivoral (24 h)) was 100% in each case.

For `O=[N+]([O-])C1=C2N(CC3CCOC3)CCN2C2CCCC1O2` (stereo not shown) [Compound 80, 10-nitro-1-((tetrahydrofuran-3-yl)methyl)-1,2,3,5,6,7,8,9-octahydro-5,9-epoxyimidazo[1,2-a]azocine], the mortality at 500 ppm (in the data set with Nilaparvata lugens (24 h); in data set [1] (24 h); in the data set with Plutella Xylostella (setting [4]); in the data set with Aphis craccivoral (24 h)) was 100% throughout.

A word on the mortality: it is the share of the test organisms that died.
